# US20220098196A1, “TRAPPING-FREE PARP INHIBITORS” (The Board of Regents of the University of Texas System, priority 2019, published 2022)
# What was measured:
# PARP1 [1] = target: T1, PARP1 (Homo sapiens, UniProt P09874); test: Quantitative analysis of the Asp- and Glu-ADP-ribosylated proteome (SILAC HeLa cells); format: cell-based; set-up: host or cells: HeLa; conditions: 10 μM, 1 hr, H2O2 2 mM, compared with Rucaparib
# Description: Protein concentrations were determined by the BCA assay kit.
# ZFP91 [2] = target: T2, ZFP91 (Homo sapiens, UniProt Q96JP5+Q96SW2); test: TMT quantitative proteomics in BT-549 cells, ZFP91; format: cell-based; set-up: host or cells: HeLa; BT-549; conditions: iRucaparib 5 μM, 24 hours
# T2 sequence (Q16531 2-1140): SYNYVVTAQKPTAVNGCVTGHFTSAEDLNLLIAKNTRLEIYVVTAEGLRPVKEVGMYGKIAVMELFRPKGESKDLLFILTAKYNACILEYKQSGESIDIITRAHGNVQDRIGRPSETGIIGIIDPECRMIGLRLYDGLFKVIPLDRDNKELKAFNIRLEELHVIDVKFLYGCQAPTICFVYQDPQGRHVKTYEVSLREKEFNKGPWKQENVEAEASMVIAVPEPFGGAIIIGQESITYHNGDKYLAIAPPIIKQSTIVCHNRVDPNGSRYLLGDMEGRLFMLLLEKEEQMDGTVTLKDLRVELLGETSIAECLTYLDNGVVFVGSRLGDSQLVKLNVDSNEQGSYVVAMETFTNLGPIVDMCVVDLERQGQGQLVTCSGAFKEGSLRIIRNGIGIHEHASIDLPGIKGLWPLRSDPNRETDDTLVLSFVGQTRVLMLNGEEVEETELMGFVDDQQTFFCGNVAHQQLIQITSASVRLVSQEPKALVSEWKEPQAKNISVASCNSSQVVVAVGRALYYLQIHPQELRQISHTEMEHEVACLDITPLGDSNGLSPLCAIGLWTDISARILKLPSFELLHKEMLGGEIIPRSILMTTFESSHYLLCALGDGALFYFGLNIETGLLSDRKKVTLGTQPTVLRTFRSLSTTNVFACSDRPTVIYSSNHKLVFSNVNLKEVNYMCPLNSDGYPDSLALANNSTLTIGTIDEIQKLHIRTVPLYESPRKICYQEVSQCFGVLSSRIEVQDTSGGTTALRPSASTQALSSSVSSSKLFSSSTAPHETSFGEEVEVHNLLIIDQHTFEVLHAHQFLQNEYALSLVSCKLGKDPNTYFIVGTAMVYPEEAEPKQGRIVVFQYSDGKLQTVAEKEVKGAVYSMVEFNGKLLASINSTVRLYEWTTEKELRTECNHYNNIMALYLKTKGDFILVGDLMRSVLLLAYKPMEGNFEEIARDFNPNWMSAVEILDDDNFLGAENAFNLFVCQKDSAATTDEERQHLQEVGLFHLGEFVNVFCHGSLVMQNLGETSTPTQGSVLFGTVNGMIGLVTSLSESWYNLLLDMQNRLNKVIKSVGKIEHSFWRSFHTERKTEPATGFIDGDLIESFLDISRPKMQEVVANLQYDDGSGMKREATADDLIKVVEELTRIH
# T2 sequence (Q96SW2 whole entry): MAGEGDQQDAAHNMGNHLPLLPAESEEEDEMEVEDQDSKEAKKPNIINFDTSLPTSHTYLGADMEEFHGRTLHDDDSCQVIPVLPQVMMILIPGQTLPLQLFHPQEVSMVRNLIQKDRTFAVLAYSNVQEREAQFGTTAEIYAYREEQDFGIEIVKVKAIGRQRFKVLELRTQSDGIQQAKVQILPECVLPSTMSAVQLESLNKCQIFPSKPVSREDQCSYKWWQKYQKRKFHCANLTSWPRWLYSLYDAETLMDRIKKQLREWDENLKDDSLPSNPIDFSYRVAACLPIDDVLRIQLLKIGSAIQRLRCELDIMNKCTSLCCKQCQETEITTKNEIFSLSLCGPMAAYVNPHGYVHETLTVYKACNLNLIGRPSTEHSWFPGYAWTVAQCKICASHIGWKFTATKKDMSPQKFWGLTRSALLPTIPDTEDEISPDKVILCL
# T2 sequence (Q96JP5 2-570): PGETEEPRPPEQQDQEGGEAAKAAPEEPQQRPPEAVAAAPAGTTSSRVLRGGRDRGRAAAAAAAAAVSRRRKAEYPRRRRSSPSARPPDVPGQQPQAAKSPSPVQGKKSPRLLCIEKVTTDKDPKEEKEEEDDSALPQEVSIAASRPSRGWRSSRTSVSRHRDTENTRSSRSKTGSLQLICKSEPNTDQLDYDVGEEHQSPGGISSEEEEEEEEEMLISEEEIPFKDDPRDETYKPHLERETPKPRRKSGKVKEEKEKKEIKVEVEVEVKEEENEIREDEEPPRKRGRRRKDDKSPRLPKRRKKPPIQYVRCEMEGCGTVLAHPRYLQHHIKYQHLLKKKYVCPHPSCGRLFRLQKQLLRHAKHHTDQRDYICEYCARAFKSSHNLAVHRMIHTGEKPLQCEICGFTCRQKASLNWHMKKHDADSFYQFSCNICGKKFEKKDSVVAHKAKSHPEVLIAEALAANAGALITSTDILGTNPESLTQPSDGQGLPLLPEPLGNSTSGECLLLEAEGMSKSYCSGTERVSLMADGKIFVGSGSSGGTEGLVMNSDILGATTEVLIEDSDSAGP
# Description: (§1) Quantitative Mass Spectrometry. […] Two biological replicate samples were prepared for each treatment condition. Cells were washed with cold PBS and lysed using the SDS lysis buffer. Protein concentrations were determined by the BCA assay (Thermo Fisher Scientific). For each sample, 500 μg of protein was used for the subsequent TMT experiments^34.
# (§2) For the TMT experiments, proteins were reduced with 2 mM DTT for 10 min and alkylated with 50 mM iodoacetamide for 30 min in dark. Proteins were then extracted using methanol-chloroform precipitation. Protein pellets were dissolved in 400 μL 8 M Urea buffer (8 M urea, 50 mM Tris-HCl, 10 mM EDTA, pH 7.5) and were digested by Lys-C (Wako, at a 1:100 enzyme/protein ratio) for 2 hours at RT. The urea concentration was then reduced to 2 M using freshly made 100 mM ammonium bicarbonate solution. […]
# (§3) Samples were desalted and fractioned by bRPLC (basic pH reversed phase HPLC) on a ZORBAX 300 Extend-C18 column (Narrow Bore RR 2.1 mm×100 mm, 3.5 μm particle size, 300 Å pore size). […] Samples were then analyzed on an Orbitrap Elite mass spectrometer (Thermo Fisher Scientific) using a top 15 HCD (higher-energy collisional dissociation) method.
# (§4) The maximum intensity of each reporter ion was extracted. For each reporter ion channel, the observed signal-to-noise ratio was summed across all quantified proteins and was normalized.
# PARP1 [3] = target: T1, PARP1; test: PARP1 degradation in HeLa cells (immunoblotting); format: cell-based; set-up: host or cells: HeLa
# Description: Immunoblotting. Cells were washed once with cold PBS and lysed with the SDS lysis buffer (1% SDS, 10 mM HEPES pH 7.0, 2 mM MgCl2, 500 U universal nuclease). Protein concentrations were determined by the BCA assay kit (Thermo Fisher Scientific). A total of 20 μg proteins (40 μg proteins for PAR immunoblotting experiments) were loaded onto the SDS-PAGE gel and were then transferred to a nitrocellulose membrane. Nitrocellulose membranes were then blocked with the TBST buffer containing 5% milk (Bio-Rad). Membranes were incubated with the primary antibodies overnight at 4° C. and the secondary antibodies for 1 hour at room temperature (RT). The blots were developed using enhanced chemiluminescence and were exposed on autoradiograph films.
# ZFP91 [4] = target: T2, ZFP91; conditions: HeLa cells, 5 μM, 24 hours
# Description: as §1, §2, §3, §4
# PARP2 = PARP2 (Homo sapiens, UniProt Q9UGN5); conditions: HeLa cells, iRucaparib 5 μM, 24 hours
# Chain of PARP2 (Q9UGN5 whole entry): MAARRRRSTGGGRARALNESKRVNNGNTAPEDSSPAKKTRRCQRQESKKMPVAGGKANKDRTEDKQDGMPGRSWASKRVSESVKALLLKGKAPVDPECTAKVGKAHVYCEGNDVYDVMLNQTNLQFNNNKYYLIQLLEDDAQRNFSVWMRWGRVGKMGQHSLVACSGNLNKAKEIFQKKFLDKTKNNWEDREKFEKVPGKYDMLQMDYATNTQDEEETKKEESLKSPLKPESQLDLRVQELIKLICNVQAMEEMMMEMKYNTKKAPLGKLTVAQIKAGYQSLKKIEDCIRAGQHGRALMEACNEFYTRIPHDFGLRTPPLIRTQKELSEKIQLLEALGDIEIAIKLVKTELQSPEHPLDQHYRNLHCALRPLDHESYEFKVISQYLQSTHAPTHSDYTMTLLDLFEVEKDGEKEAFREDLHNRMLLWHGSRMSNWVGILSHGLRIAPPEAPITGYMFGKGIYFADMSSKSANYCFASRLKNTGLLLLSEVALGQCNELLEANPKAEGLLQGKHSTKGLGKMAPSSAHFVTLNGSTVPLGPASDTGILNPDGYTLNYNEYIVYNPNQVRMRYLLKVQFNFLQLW
# Description: as §1, §2, §3, §4
# [5] = target: T3, aldehyde dehydrogenase, mitochondria (ALDH2) (Homo sapiens, UniProt P05091); test: TMT quantitative proteomics in HeLa cells, ALDH2; format: cell-based; conditions: 5 μM, 24 hours
# T3 construct: host or cells: HeLa
# T3 sequence (P05091 18-517): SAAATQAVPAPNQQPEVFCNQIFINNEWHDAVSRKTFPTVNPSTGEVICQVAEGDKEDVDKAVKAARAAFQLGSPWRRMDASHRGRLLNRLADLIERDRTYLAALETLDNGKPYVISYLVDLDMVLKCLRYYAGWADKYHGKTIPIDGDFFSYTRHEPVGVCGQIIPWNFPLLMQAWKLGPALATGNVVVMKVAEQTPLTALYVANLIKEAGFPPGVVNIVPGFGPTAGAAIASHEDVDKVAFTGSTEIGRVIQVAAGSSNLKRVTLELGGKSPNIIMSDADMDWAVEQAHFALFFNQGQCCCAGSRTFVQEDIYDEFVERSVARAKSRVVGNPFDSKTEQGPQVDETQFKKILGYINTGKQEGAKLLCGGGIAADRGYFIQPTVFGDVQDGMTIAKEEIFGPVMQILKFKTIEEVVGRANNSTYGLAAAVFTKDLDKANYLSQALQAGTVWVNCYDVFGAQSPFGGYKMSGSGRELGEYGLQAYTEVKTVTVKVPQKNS
# Text: Quantitative Mass Spectrometry.
# Proteins were then extracted using methanol-chloroform precipitation.
# The maximum intensity of each reporter ion was extracted.
# HeLa cells = test: TMT global protein expression analysis in HeLa cells (whole proteome); format: cell-based, human
# Description: as §1
# For the TMT experiments, proteins were reduced with 2 mM DTT for 10 min and alkylated with 50 mM iodoacetamide for 30 min in dark. Proteins were then extracted using methanol-chloroform precipitation. […] Proteins were subsequently digested with trypsin (Thermo Fisher Scientific, at 1:100 enzyme/protein ratio) overnight at RT. Peptides were desalted with Oasis HLB cartridges (Waters) and resuspended in 200 mM HEPES (pH 8.5) to a final concentration of […]. For each sample, 100 μg of peptides were reacted with the corresponding amine-based TMT six-plex reagents (Thermo Fisher Scientific) for 1 hour. The reactions were quenched with 5% hydroxylamine solution and were combined.
# as §3, with “size). Buffer A is (10 mM Ammonium Formate in H2O, pH 10.0). Gradient was developed at a flow rate of 0.2 mL/min from 0% to 70% buffer B (1 mM Ammonium Formate, pH 10.0, 90% ACN).” for “size).”
# as §4
# PARP1 [6] = target: T1, PARP1; test: TMT quantitative proteomics in HeLa cells, PARP1; format: cell-based; set-up: host or cells: HeLa
# Description: as §1
# For the TMT experiments, proteins were reduced with 2 mM DTT for 10 min and alkylated with 50 mM iodoacetamide for 30 min in dark. Proteins were then extracted using methanol-chloroform precipitation. […] Proteins were subsequently digested with trypsin (Thermo Fisher Scientific, at 1:100 enzyme/protein ratio) overnight at RT. […]
# as §3, §4
# [7] = pre-treated 5 μM 24 hours, washout
# T1 sequence (P09874 whole entry): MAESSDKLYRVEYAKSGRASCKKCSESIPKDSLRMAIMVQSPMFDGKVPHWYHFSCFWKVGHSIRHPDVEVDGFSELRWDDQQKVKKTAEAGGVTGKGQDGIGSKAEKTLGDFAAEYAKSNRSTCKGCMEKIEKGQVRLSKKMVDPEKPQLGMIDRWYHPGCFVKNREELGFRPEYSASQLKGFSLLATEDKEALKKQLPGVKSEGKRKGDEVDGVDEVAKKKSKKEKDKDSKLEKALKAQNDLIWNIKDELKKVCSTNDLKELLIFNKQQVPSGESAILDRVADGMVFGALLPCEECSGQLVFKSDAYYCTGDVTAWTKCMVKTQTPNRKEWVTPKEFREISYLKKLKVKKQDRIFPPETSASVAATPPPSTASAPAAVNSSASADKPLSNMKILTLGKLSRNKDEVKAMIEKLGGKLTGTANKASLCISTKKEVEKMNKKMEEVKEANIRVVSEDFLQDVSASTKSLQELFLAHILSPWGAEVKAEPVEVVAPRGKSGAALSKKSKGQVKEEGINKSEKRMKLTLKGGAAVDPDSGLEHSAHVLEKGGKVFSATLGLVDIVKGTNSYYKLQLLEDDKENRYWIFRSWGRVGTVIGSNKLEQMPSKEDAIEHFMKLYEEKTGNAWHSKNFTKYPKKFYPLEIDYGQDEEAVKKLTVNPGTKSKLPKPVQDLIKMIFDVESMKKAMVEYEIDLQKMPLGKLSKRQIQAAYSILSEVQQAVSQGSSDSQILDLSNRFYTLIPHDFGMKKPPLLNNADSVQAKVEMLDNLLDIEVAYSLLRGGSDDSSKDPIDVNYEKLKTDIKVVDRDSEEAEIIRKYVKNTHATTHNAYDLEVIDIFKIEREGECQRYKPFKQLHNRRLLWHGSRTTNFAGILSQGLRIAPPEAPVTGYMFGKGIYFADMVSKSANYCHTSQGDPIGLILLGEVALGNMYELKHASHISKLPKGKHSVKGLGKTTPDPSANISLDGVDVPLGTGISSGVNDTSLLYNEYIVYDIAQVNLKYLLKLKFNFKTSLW
compound,measurement,setting,value
"CN(CCCCc1cn(CCOCCOCCOCCNc2cccc3c2C(=O)N(C2CCC(=O)NC2=O)C3=O)nn1)Cc1ccc(-c2[nH]c3cc(F)cc4c3c2CCNC4=O)cc1 (centres unmarked) [iRucaparib, Rucaparib-Triazole-PEG3-Pomalidomide]",response of PARP1 auto-modified peptide AEPVE*VVAPR,PARP1 [1],very similar response
same,ZFP91 decrease,ZFP91 [2],~3 fold
same,concentration at which PARP1 expression was reduced to the lowest level,PARP1 [3]; 24 hours,2 to 5 µM
same,concentration at which a decrease in PARP1 degradation was observed (hook effect),PARP1 [3]; 24 hours,≥ 10 µM
same,PARP1 degraded,"PARP1 [3]; iRucaparib 5 μM, after 12 hours treatment",~50%
same,time for which decreased PARP1 abundance persisted,"PARP1 [3]; iRucaparib 5 μM, time course",at least 72 hrs
same,PARP1 degradation,"PARP1 [3]; increasing concentrations, 24 hours",robust degradation of PARP1
same,time after compound washout at which PARP1 levels were partially recovered,PARP1 [3]; [7],4 to 8 h
same,time after compound washout to reach the pre-treatment PARP1 level,PARP1 [3]; [7],about 36 hrs
same,ZFP91 Log 2(iRucaparib/DMSO) ratio,ZFP91 [4],−2.09
same,PARP2 decrease,PARP2,about 30%
same,ALDH2 Log 2(iRucaparib/DMSO) ratio,[5],0.05
same,proteins with 2-fold decrease (potential pomalidomide-induced degradation targets),"HeLa cells; DMSO vs. iRucaparib (5 μM) plus Rucaparib (1 μM), 24 hours",UBBP4 and ZFP91
same,number of proteins with abundance decreased by more than 2-fold,"HeLa cells; iRucaparib 5 μM 24 hours vs DMSO, 7,437 quantified proteins",five
same,"downregulation of other PARPs (PARP16, PARP14, PARP4, PARP12, PARP9, TNKS1)","HeLa cells; iRucaparib 5 μM, 24 hours",none of the other PARPs exhibited significant downregulation
same,PARP1 Log 2(iRucaparib/DMSO) ratio,"PARP1 [6]; 5 μM, 24 hours",−1.49
same,"PARP1 decrease, iRucaparib vs. iRucaparib/Rucaparib group","PARP1 [6]; only protein among 7,437 quantified",more than 2 fold
